Data on nine compounds can be found in patent US20040171086A1, “Selective modulation of TLR-mediated biological activity” (3M Innovative Properties Company, priority 2003, published 2004).

One test has as its target T1, TLR6 (Homo sapiens, UniProt Q9Y2C9).
T1 construct: expressed in transfected cells; host or cells: Namalwa (ATCC CRL-1432), pCI-TLR6 vector, G418 selected
T1 sequence (Q9Y2C9 32-796): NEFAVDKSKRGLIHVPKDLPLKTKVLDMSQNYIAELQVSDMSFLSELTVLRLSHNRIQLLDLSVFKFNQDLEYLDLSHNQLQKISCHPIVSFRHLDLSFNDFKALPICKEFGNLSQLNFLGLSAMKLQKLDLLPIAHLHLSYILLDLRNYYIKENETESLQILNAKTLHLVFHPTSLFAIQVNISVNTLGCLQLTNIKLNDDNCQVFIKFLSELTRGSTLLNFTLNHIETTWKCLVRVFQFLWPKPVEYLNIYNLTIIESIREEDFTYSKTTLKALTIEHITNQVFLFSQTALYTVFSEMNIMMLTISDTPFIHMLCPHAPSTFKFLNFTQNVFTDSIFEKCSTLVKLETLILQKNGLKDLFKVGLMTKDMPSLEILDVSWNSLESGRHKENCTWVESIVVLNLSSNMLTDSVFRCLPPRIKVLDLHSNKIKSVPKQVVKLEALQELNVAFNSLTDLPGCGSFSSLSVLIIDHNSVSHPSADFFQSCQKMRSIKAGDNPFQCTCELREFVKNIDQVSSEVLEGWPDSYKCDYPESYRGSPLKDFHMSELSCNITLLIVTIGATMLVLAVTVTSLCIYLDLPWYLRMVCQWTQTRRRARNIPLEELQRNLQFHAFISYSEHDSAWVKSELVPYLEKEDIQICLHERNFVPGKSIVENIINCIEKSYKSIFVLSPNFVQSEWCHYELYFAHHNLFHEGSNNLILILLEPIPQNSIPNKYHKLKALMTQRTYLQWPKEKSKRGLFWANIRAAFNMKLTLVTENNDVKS
The experiment in a line: IFN-α1-luciferase reporter assay in genetically modified Namalwa cells, TLR6. The format is cell-based. The following applies: 10 μM IRM, 18 hours. The protocol: Results are shown in Table 6 and are expressed as fold induction of IFN-α1 —induced luciferase signal, again with respect to a vehicle control.
The assay identified TLR6-selective compounds (i.e., compounds that modulate TLR6-mediated activity, but not TLR7-mediated activity), TLR7-selective compounds (compounds that modulate TLR7-mediated activity, but not TLR6-mediated activity), and compounds that modulate cellular activity through both TLR6 and TLR7.
Unless otherwise indicated, all incubations were performed at 37° C. with 5% CO2 at 98% humidity.
Culture medium was prepared from complete RPMI 1640 medium (BioSource International, Inc., Camarillo, Calif.). Fetal bovine serum (Atlas Biologicals, Inc., Ft. Collins, Colo.) was added to a final concentration of 7.5% (vol/vol); L-glutamine (BioSource International, Inc.) was added to 5 mM; and sodium pyruvate (BioSource International, Inc.) was added to 1 mM.
Namalwa cells were grown by incubation in culture medium overnight. Cells were harvested by centrifugation in a tabletop centrifuge (1200 RPM for 5 minutes), and then resuspended in phosphate buffered sucrose to a concentration of 1.3×10^7 cells/mL.
For each transfection, a 750 μL aliquot of the cell suspension was placed in an electroporation cuvette with 4 mm gaps. 10 μg of the pIFN-α1-luc vector and 10 μg of the pCI-TLR6 vector were added to the electroporation cuvette. The cell and vector mixtures were incubated at room temperature for 5 minutes. The cells were electroporated using a BioRad Gene Pulser (BioRad Laboratories, Hercules, Calif.) set to at 500 μF capacitance and […], then incubated at room temperature for 5 minutes.
The electroporated cells were suspended in 10 mLs of culture medium and incubated overnight. Dead cells and debris were removed after 24 hours using a MACS Dead Cell Removal kit (Miltenyi Biotec, Auburn, Calif.). Cells were resuspended in 10 mL of culture medium and incubated for an additional 24 hours.
Transfected cells were selected by adding G418 (Promega Corp., Madison, Wis.) to a final concentration of 1 mg/mL and incubating the cells for seven days.
The selected transfected cells were counted and resuspended to a concentration of 1×10^6 cell per mL in culture medium. 100 μl aliquots of cells were placed in the wells of a white-walled, white-bottomed 96-well plate (Corning, Inc., Corning, N.Y.). 1.0 μL of an IRM compound from Table 1 (prepared at 1 mM in 100% DMSO) was added to some cell aliquots so that the final concentration of IRM compound was 10 μM. As a positive control, some cell aliquots were incubated with Sendai virus instead of IRM compound. As a negative control, some cell aliquots were incubated with DMSO without IRM compound. In all cases, the cells were incubated for 18 hours.
The plates were equilibrated to room temperature before one volume of reconstituted LucLight Plus (Packard Instruments, Meriden, Conn.) was added to each aliquot of cells. Each well of the plate was read on an LJL Analyst (LJL Biosystems, Inc., Sunnyvale, Calif.) set with a 5 minute dark adapt. Results are shown in Table 6 and are expressed as fold increase of the IFN-αl—induced luciferase signal compared to a DMSO control.
(Reporter assays use an easily measured gene product as a stand-in for the process of interest.)

The test system of test [1] is myeloid dendritic cells (mDCs). The experiment in a line: Activation of blood myeloid dendritic cells (CD80/HLA-DR staining, flow cytometry). The format is cell-based, human. The conditions noted are these: two donors; 1 μM IRM or 3 μM CpG2216, 16-24 hours; HLA-DR positive with increased CD80; FIG. 1. The procedure:
The blood myeloid dendritic cells (mDC) were isolated from the BDCA-4 negative cell fraction using the Miltenyi Microbead technology system (Miltenyi BioTec, Auburn, Calif.). Cells were resuspended in 4° C. separation buffer (PBS- pH 7.2, 0.5% BSA-2.5 gm, 2 mM 0.5M EDTA) at 20 μl per 10^7 total cells. […] The cells were resuspended in 500 μL of separation buffer per 10^8 total cells. […] BDCA-1^+mDCs were enriched using the Miltenyi Automacs POSSELD software. The cells retained in the column were eluted into a sterile 50 mL polystyrene conical tube.
(§1) Compounds, reconstituted in dimethyl sulfoxide (DMSO, sterile cell culture grade, Sigma Chemical Co., St. Louis, Mo.) were added at 2× their final concentration to a 96-well flat-bottom sterile tissue culture polystyrene plate (Benton Dickinson Labware, Franklin Lakes, N.J.). Cells were then added at 2× the final concentration (final cell concentration is 1×10^6 cells/mL). Plates were incubated for 16-24 hours at 37° C., 5% CO2. After incubation, plates were centrifuged at 1000 RPM for 10 minutes at 25° C. Supernatants were transferred to a 0.75 mL sterile polypropylene Matrix box (Matrix, Hudson, N.Y.) and stored at −20° C. for future cytokine analysis.
Background: In flow cytometry, cells or beads pass a laser one at a time.

The test system of test [2] is plasmacytoid dendritic cells (pDCs). Nature of the test: Activation of plasmacytoid dendritic cells (CD80/HLA-DR staining, flow cytometry). The format is cell-based, human. The conditions noted are these: two donors; 1 μM IRM or 3 μM CpG2216, 16-24 hours; HLA-DR positive with increased CD80; FIG. 2. The procedure: The cells were resuspended in 500 μL of separation buffer per 10^8 total cells. […] The cells retained in the column were eluted into a sterile 50 mL polystyrene conical tube.
as §1

SMILES strings stand for the structures.

In the case of `CCOCc1nc2c(N)nc3ccccc3c2n1CC(C)C` [IRM1, 2-(ethoxymethyl)-1-(2-methylpropyl)-1H-imidazo[4,5-c]quinolin-4-amine], the “TLR6: fold increase of the IFN-α1-induced luciferase signal compared to a DMSO control” value (“TLR6: fold increase” for short) on TLR6 amounted to 7.93 fold increase.
On the same count and under the same terms, the same measure for `COCCc1nc2c(N)nc3ccccc3c2n1CCOCCN(C)C(=O)C1CCCCC1` [IRM3, N-(2-{2-[4-amino-2-(2-methoxyethyl)-1H-imidazo[4,5-c]quinolin-1-yl]ethoxy}ethyl)-N-methylcyclohexanecarboxamide]: 10.24 fold increase.
Same read-out and setting: the same measure for `CCCCc1nc2c(N)nc3ccccc3c2n1CCCCCS(C)(=O)=O` [IRM6, 2-butyl-1-[5-(methylsulfonyl)pentyl]-1H-imidazo[4,5-c]quinolin-4-amine]: 13.61 fold increase.
Same read-out and setting: the same measure for `CCc1nc2c(N)nc3ccccc3c2n1CCCCNC(=O)C1CCCCC1` [IRM8, N-[4-(4-amino-2-ethyl-1H-imidazo[4,5-c]quinolin-1-yl)butyl]cyclohexanecarboxamide]: 12.49 fold increase.
On to `CCc1nc2c(N)nc3ccccc3c2n1CCCCSc1cc(Cl)cc(Cl)c1` [IRM14, 1-{4-[(3,5-dichlorophenyl)thio]butyl}-2-ethyl-1H-imidazo[4,5-c]quinolin-4-amine], for which, at TLR6, the “TLR6: fold increase” value amounted to 2.73 fold increase.
On to `CCOCc1nc2c(N)nc3c(c2n1CC(C)(C)O)CCCC3` [IRM16, 4-amino-2-ethoxymethyl-α,α-dimethyl-6,7,8,9-tetrahydro-1H-imidazo[4,5-c]quinoline-1-ethanol], for which the “activation of myeloid dendritic cells (mDCs) in vitro” value in test [1] is on record as “activated”. In addition, in test [2], the “activation of plasmacytoid dendritic cells (pDCs) in vitro” value is reported as “activated”. Besides, the “TLR6: fold increase” value at TLR6 was found to be 12.95 fold increase.
For `COCCc1nc2c(N)nc3ccccc3c2n1CCOCCNC(=O)Nc1ccccc1` [IRM19, N-(2-{2-[4-amino-2-(2-methoxyethyl)-1H-imidazo[4,5-c]quinolin-1-yl)ethoxy}ethyl)-N′-phenylurea], the “TLR6: fold increase” value on TLR6 is on record as 12.60 fold increase.
As for `CCC(C)NC(=S)NCCn1c(CCOC)nc2c(N)nc3ccccc3c21` (centres unmarked) [IRM21, N-{2-[4-amino-2-(2-methoxyethyl)-1H-imidazo[4,5-c]quinolin-1-yl]ethyl}-N′-sec-butylthiourea], the “TLR6: fold increase” value at TLR6 came out at 17.98 fold increase.
For `COCCc1nc2c(N)nc3c(c2n1CC(C)(C)NS(C)(=O)=O)CCCC3` [IRM22, N-{2-[4-amino-2-(2-methoxyethyl)-6,7,8,9-tetrahydro-1H-imidazo[4,5-c]quinolin-1-yl]-1,1-dimethylethyl}methanesulfonamide], at TLR6, the “TLR6: fold increase” value came out at 16.25 fold increase.
